Where only a bound is given, the exact number is not on record here.

We go through 10 compounds from US20100331320A1, “CYCLIC INHIBITORS OF 11BETA-HYDROXYSTEROID DEHYDROGENASE 1” (Vitae Pharmaceuticals, Inc., priority 2009, published 2010).

Series [1] has as its target T1, 11β-HSD1 (Homo sapiens, UniProt P28845).
T1 construct: detecting cortisol generated from cortisterone by human liver microsomes
Description: biochemical. The conditions noted are these: read-out: Average % control inhibition at 100 nM.
Description: Briefly, compounds were incubated for 1 hour at 37° C. in Tris buffer (20 mM tris, 5 mM EDTA, pH 6.0) containing NADPH (200 μM) and cortisone (80 nM). Cortisol generated in the reaction was then detected with a competitive immunoassay, involving two HTRF conjugates: cortisol linked to XL665 and anti-cortisol antibody labeled with Europium cryptate. The incubation period for detection reaction was typically 2 hours. […] The ratio of the two emission signals was then calculated (Em665*10000/Em615). […] Each assay also contained a calibration curve with cortisol to transform the fluorescent data into cortisol concentrations. Percent inhibition of each compound was determined relative to the carbenoxolone signal.

A short description of series [2]: Slurry experiment on stability of the crystalline form (water suspension, XRPD). As to conditions: for polymorphic change after slurry in water: suspended in water for up to seven days, XRPD of the filtration residue; for stability of the anhydrous state: during the measurement by XRPD (30 minutes). The series is classed as physicochemical. As to the method:
In this study, a suspension of the monohydrate of Example 48 was suspended in water for up to seven days. After the treatment, the mixtures were filtered and an x-ray powder diffraction of the filtration residue was measured.
In this study, a suspension of the monohydrate of Example 75 was suspended in water for up to seven days. After the treatment, the mixtures were filtered and an x-ray powder diffraction of the filtration residue was measured.

Series [3] addresses CYP3A4 (Homo sapiens, UniProt P08684). Description: Biological Test Example 6: CYP3A4 Inhibition ([N-methyl-14C]-Erythromycin N-demethylation). In kind it is in vitro ADME. As to conditions: recombinant CYP3A4, probe [N-methyl-14C]-Erythromycin (50 μM).

T1 sequence (P28845 whole entry): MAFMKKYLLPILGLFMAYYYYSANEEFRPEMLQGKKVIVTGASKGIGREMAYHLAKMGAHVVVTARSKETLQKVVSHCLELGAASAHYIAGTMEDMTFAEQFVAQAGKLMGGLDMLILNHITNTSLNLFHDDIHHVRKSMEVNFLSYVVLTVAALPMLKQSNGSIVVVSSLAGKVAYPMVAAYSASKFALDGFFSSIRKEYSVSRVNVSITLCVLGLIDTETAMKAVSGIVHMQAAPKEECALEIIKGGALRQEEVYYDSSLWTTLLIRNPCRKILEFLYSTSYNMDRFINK
CYP3A4, sequence (P08684 whole entry): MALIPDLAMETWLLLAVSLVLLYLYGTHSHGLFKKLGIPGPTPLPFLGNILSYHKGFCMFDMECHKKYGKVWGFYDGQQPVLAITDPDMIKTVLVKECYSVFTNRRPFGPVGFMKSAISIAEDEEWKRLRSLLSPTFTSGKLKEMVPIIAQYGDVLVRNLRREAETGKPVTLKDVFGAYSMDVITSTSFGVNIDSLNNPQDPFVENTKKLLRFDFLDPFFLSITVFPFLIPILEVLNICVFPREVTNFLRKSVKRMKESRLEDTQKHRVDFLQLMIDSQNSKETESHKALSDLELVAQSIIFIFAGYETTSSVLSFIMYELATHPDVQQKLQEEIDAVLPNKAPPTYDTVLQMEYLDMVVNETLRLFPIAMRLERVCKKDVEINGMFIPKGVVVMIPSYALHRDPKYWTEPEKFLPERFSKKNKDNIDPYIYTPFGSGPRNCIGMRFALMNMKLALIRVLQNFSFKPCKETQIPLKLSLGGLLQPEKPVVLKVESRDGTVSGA

Regarding `C[C@@H](c1ccc(-c2ccn(CC(C)(C)CO)c(=O)c2)cc1)N1CC[C@](CC(C)(C)O)(c2ccccc2)OC1=O` [Example 90, 3-((S)-1-{4-[1-(3-Hydroxy-2,2-dimethyl-propyl)-2-oxo-1,2-dihydro-pyridin-4-yl]-phenyl}-ethyl)-(S)-6-(2-hydroxy-2-methyl-propyl)-6-phenyl-[1,3]oxazinan-2-one], the percent inhibition at 0.1 µM in series [1] is 4%.
In the case of `C[C@@H](c1ccc(-c2ccn(C)c(=O)c2)cc1)N1CC[C@](CC(C)(C)O)(c2ccccc2)OC1=O` [monohydrate of Example 48, (S)-6-(2-hydroxy-2-methylpropyl)-3-((S)-1-(4-(1-methyl-2-oxo-1,2-dihydropyridin-4-yl)phenyl)ethyl)-6-phenyl-1,3-oxazinan-2-one], the “polymorphic change after slurry in water” value in series [2] is listed as “No polymorphic change was observed”.
On to `CC(CO)Cn1ccc(-c2ccc([C@H](C)N3CC[C@](CC(C)(C)O)(c4ccccc4)OC3=O)cc2)cc1=O` (stereo partly drawn) [Example 82, (S)-6-(2-Hydroxy-2-methyl-propyl)-3-((S)-1-{4-[1-(3-hydroxy-2-methyl-propyl)-2-oxo-1,2-dihydro-pyridin-4-yl]-phenyl}-ethyl)-6-phenyl-[1,3]oxazinan-2-one], for which the percent inhibition at 0.1 µM in series [1] was -12%.
On the same count and under the same terms, the result for `C[C@@H](c1ccc(-c2ccn(CC(C)(C)O)c(=O)c2)cc1)N1CC[C@](CC(C)(C)O)(c2ccccc2)OC1=O` [Example 80, (S)-6-(2-Hydroxy-2-methyl-propyl)-3-((S)-1-{4-[1-(2-hydroxy-2-methyl-propyl)-2-oxo-1,2-dihydro-pyridin-4-yl]-phenyl}-ethyl)-6-phenyl-[1,3]oxazinan-2-one] reads 37%; that for `COCC(C)Cn1ccc(-c2ccc([C@H](C)N3CC[C@](CC(C)(C)O)(c4ccccc4)OC3=O)cc2)cc1=O` (stereo partly drawn) [Example 81, (S)-6-(2-Hydroxy-2-methyl-propyl)-3-((S)-1-{4-[1-(3-methoxy-2-methyl-propyl)-2-oxo-1,2-dihydro-pyridin-4-yl]-phenyl}-ethyl)-6-phenyl-[1,3]oxazinan-2-one], 11%.
With `C[C@@H](c1ccc(-c2ccn(C3CC3)c(=O)c2)cc1)N1CC[C@](CC(C)(C)O)(c2ccccc2)OC1=O` [anhydrous form of Example 75, 3-{(S)-1-[4-(1-Cyclopropyl-2-oxo-1,2-dihydro-pyridin-4-yl)-phenyl]-ethyl}-(S)-6-(2-hydroxy-2-methyl-propyl)-6-phenyl-[1,3]oxazinan-2-one], the “stability of the anhydrous state” value in series [2] is “did not remain in the anhydrous state”.
Take `C[C@@H](c1ccc(-c2ccn(C3CC3)c(=O)c2)cc1)N1CC[C@](CC(C)(C)O)(c2ccccc2)OC1=O` [monohydrate of Example 75, 3-{(S)-1-[4-(1-Cyclopropyl-2-oxo-1,2-dihydro-pyridin-4-yl)-phenyl]-ethyl}-(S)-6-(2-hydroxy-2-methyl-propyl)-6-phenyl-[1,3]oxazinan-2-one]: the “polymorphic change after slurry in water” value in series [2] is “No polymorphic change was observed”.
For the compound `C[C@@H](c1ccc(-c2cc(=O)n(C)cc2F)cc1)N1CC[C@](CC(C)(C)O)(c2ccccc2)OC1=O` [Example 79, 3-{(S)-1-[4-(5-Fluoro-1-methyl-2-oxo-1,2-dihydro-pyridin-4-yl)-phenyl]-ethyl}-(S)-6-(2-hydroxy-2-methyl-propyl)-6-phenyl-[1,3]oxazinan-2-one], the percent inhibition at 0.1 µM in series [1] was found to be 15%.
A word on the IC50: it is the concentration at which inhibition is half-maximal. Take `COC(C)(C)Cn1ccc(-c2ccc([C@H](C)N3CC[C@](CC(C)(C)O)(c4ccccc4)OC3=O)cc2)cc1=O` [Example 83, (S)-6-(2-Hydroxy-2-methyl-propyl)-3-(1-{4-[1-(2-methoxy-2-methyl-propyl)-2-oxo-1,2-dihydro-pyridin-4-yl]-phenyl}-ethyl)-6-phenyl-[1,3]oxazinan-2-one]: the percent inhibition at 0.1 µM in series [1] is 54%. In addition, the IC50 in series [3] is > 50 µM.
Take `C[C@@H](c1ccc(-c2ccn(C)c(=O)c2)cc1)N1CC[C@](CC(C)(C)O)(c2ccccc2)OC1=O` [anhydrous form of Example 48, (S)-6-(2-hydroxy-2-methylpropyl)-3-((S)-1-(4-(1-methyl-2-oxo-1,2-dihydropyridin-4-yl)phenyl)ethyl)-6-phenyl-1,3-oxazinan-2-one]: the “stability of the anhydrous state” value in series [2] is recorded as “did not remain in the anhydrous state”.
